This note sets out measurements from patent publication US20070249620A1, “Urea Derivative” (priority 2004, published 2007).

For orientation: melting point means the temperature, or range, at which the solid turns liquid. Turning to `CCOc1ccc(F)cc1NC(=O)Nc1ccc(N2CCN(C(=O)OC(C)(C)C)CC2)cc1` [Example 42, 4-{4-[3-(2-ethoxy-5-fluoro-phenyl)-ureido]-phenyl}-piperazine-1-carboxylic acid tert-butyl ester], the melting point was in the range of 168 to 169 °C.

Compound `CCOc1ccc(Cl)cc1NC(=O)Nc1ccc(N2CCN(C(=O)OC(C)(C)C)CC2)cc1` [Example 43, 4-{4-[3-(5-chloro-2-ethoxy-phenyl)-ureido]-phenyl}-piperazine-1-carboxylic acid tert-butyl ester] displayed a melting point of 165 to 167 °C.

For the compound `COc1ccc(F)cc1NC(=O)Nc1ccc(N2CCN(C(=O)OC(C)(C)C)CC2)cc1` [Example 44, 4-{4-[3-(5-fluoro-2-methoxy-phenyl)-ureido]-phenyl}-piperazine-1-carboxylic acid tert-butyl ester], the melting point lay within 200 to 202 °C.

In turn, `COc1ccc(F)cc1NC(=O)Nc1ccc(N2CCN(C(=O)OC(C)(C)C)CC2)nc1` [Example 45, 4-{5-[3-(5-fluoro-2-methoxy-phenyl)-ureido]-pyridin-2-yl}-piperazine-1-carboxylic acid tert-butyl ester] displayed a melting point of 200 to 201 °C.

`COc1ccc(C)cc1NC(=O)Nc1ccc(N2CCN(C(=O)Oc3ccccc3)CC2)cc1` [Example 47, 4-{4-[3-(2-methoxy-5-methyl-phenyl)-ureido]-phenyl}-piperazine-1-carboxylic acid phenyl ester] returned a melting point of 179 °C.

`COc1ccc(C)cc1NC(=O)Nc1ccc(N2CCN(C(=O)C3CCCCC3)CC2)cc1` [Example 48, 1-[4-(4-cyclohexanecarbonyl-piperazin-1-yl)-phenyl]-3-(2-methoxy-5-methyl-phenyl)-urea]: the melting point is 222 °C.

`COc1ccc(C)cc1NC(=O)Nc1ccc(N2CCN(C(=O)Nc3ccccc3)CC2)cc1` [Example 49, 4-{4-[3-(2-methoxy-5-methyl-phenyl)-ureido]-phenyl}-piperazine-1-carboxylic acid phenylamide] came in with a melting point of 221 °C.

As to `COc1ccc(C)cc1NC(=O)Nc1ccc(N2CCN(C(=O)NCc3ccccc3)CC2)cc1` [Example 50, 4-{4-[3-(2-methoxy-5-methyl-phenyl)-ureido]-phenyl}-piperazine-1-carboxylic acid benzylamide], the melting point came out at 224 °C.

As to `COc1ccc(C)cc1NC(=O)Nc1ccc(N2CCN(C(N)=O)CC2)cc1` [Example 51, 4-{4-[3-(2-methoxy-5-methyl-phenyl)-ureido]-phenyl}-piperazine-1-carboxylic acid amide], the melting point came out at 136 °C.

As to `COc1ccc(C)cc1NC(=O)Nc1ccc(N2CCN(C(=O)Nc3ccccc3F)CC2)cc1` [Example 52, 4-{4-[3-(2-methoxy-5-methyl-phenyl)-ureido]-phenyl}-piperazine-1-carboxylic acid (2-fluoro-phenyl)-amide], the melting point is 200 to 201 °C.

As for `COc1ccc(C)cc1NC(=O)Nc1ccc(N2CCN(C(=O)Nc3c(F)cccc3F)CC2)cc1` [Example 55, 4-{4-[3-(2-methoxy-5-methyl-phenyl)-ureido]-phenyl}-piperazine-1-carboxylic acid (2,6-difluoro-phenyl)-amide], the melting point was found to be 224 °C.

Consider `COc1ccc(C)cc1NC(=O)Nc1ccc(N2CCN(C(=O)Nc3ccccc3Cl)CC2)cc1` [Example 56, 4-{4-[3-(2-methoxy-5-methyl-phenyl)-ureido]-phenyl}-piperazine-1-carboxylic acid (2-chloro-phenyl)-amide], for which the melting point was > 240 °C (dec.).

Turning to `CCc1cccc(C)c1NC(=O)N1CCN(c2ccc(NC(=O)Nc3cc(C)ccc3OC)cc2)CC1` [Example 63, 4-{4-[3-(2-methoxy-5-methyl-phenyl)-ureido]-phenyl}-piperazine-1-carboxylic acid (2-ethyl-6-methyl-phenyl)-amide], the melting point fell in the range of 207 to 209 °C.

For the compound `COc1ccc(Cl)cc1NC(=O)Nc1ccc(N2CCN(C(=O)Nc3ccccc3F)CC2)cc1` [Example 67, 4-{4-[3-(5-chloro-2-methoxy-phenyl)-ureido]-phenyl}-piperazine-1-carboxylic acid (2-fluoro-phenyl)-amide], the melting point was 218 to 220 °C.

The compound `COc1ccc(Cl)cc1NC(=O)Nc1ccc(N2CCN(C(=O)Nc3ccccc3C(F)(F)F)CC2)cc1` [Example 68, 4-{4-[3-(5-chloro-2-methoxy-phenyl)-ureido]-phenyl}-piperazine-1-carboxylic acid (2-trifluoromethyl-phenyl)-amide] showed a melting point of 213 to 214 °C.

In turn, `COc1ccc(Cl)cc1NC(=O)Nc1ccc(N2CCN(C(=O)Nc3ccccc3C)CC2)cc1` [Example 69, 4-{4-[3-(5-chloro-2-methoxy-phenyl)-ureido]-phenyl}-piperazine-1-carboxylic acid o-tolylamide] came in with a melting point of 230 to 232 °C.

`COc1ccc(C)cc1NC(=O)Nc1ccc(N2CCN(C(=O)Nc3ccc(Br)cc3C)CC2)cc1` [Example 70, 4-{4-[3-(2-methoxy-5-methyl-phenyl)-ureido]-phenyl}-piperazine-1-carboxylic acid (4-bromo-2-methyl-phenyl)-amide]: the melting point was in the range of 191 to 193 °C.

For `COc1ccc(C)cc1NC(=O)Nc1ccc(N2CCN(C(=O)Nc3ccc(C)cc3C)CC2)cc1` [Example 71, 4-{4-[3-(2-methoxy-5-methyl-phenyl)-ureido]-phenyl}-piperazine-1-carboxylic acid (2,4-dimethyl-phenyl)-amide], the melting point is 196 to 199 °C.

Compound `COc1ccc(C)cc1NC(=O)Nc1ccc(N2CCN(C(=O)Nc3ccc(F)cc3F)CC2)cc1` [Example 72, 4-{4-[3-(2-methoxy-5-methyl-phenyl)-ureido]-phenyl)-piperazine-1-carboxylic acid (2,4-difluoro-phenyl)-amide] returned a melting point of 201 to 203 °C.

Compound `COc1ccc(C)cc1NC(=O)Nc1ccc(N2CCN(C(=O)Nc3ccc(Cl)cc3C)CC2)cc1` [Example 74, 4-{4-[3-(2-methoxy-5-methyl-phenyl)-ureido]-phenyl}-piperazine-1-carboxylic acid (4-chloro-2-methyl-phenyl)-amide] registered a melting point of 199 to 201 °C.

As to `COc1ccc(C)cc1NC(=O)Nc1ccc(N2CCN(C(=O)Nc3cccc(C)c3C)CC2)cc1` [Example 108, 4-{4-[3-(2-methoxy-5-methyl-phenyl)-ureido]-phenyl}-piperazine-1-carboxylic acid (2,3-dimethyl-phenyl)-amide], the melting point lay in the range of 217 to 219 °C.

`COc1ccc(C)cc1NC(=O)Nc1ccc(N2CCN(C(=O)Nc3cccc(Cl)c3C)CC2)cc1` [Example 136, 4-{4-[3-(2-methoxy-5-methyl-phenyl)-ureido]-phenyl}-piperazine-1-carboxylic acid (3-chloro-2-methyl-phenyl)-amide] gave a melting point of 228 to 230 °C.

In the case of `COc1ccc(Cl)cc1NC(=O)Nc1ccc(N2CCN(C(=O)Nc3c(C)cccc3OC)CC2)cc1` [Example 182, 4-{4-[3-(5-chloro-2-methoxy-phenyl)-ureido]-phenyl}-piperazine-1-carboxylic acid (2-methoxy-6-methyl-phenyl)-amide], the melting point is 165 to 167 °C.

`COc1ccc(C)cc1NC(=O)Nc1ccc(N2CCN(C(=O)C3CC4CCC3C4)CC2)cc1` (stereo not drawn) [Example 189, 1-{4-[4-(bicyclo[2.2.1]heptane-2-carbonyl)-piperazin-1-yl]-phenyl}-3-(2-methoxy-5-methyl-phenyl)-urea] gave a melting point of 126 to 128 °C.

In turn, `COc1ccc(C)cc1NC(=O)Nc1ccc(N2CCN(C(=O)C3CCCCC3C)CC2)cc1` (stereo not drawn) [Example 190, 1-(2-methoxy-5-methyl-phenyl)-3-{4-[4-(2-methyl-cyclohexanecarbonyl)-piperazin-1-yl]-phenyl}-urea] showed a melting point of 208 to 209 °C.

In turn, `COc1ccc(C)cc1NC(=O)Nc1ccc(N2CCN(Cc3ccccc3)CC2)cc1` [Example 191, 1-[4-(4-benzyl-piperazin-1-yl)-phenyl]-3-(2-methoxy-5-methyl-phenyl)-urea] had a melting point of 184 to 186 °C.

The compound `COc1ccc(C)cc1NC(=O)Nc1ccc(N2CCN(c3ncccn3)CC2)cc1` [Example 193, 1-(2-methoxy-5-methyl-phenyl)-3-[4-(4-pyrimidin-2-yl-piperazin-1-yl)-phenyl]-urea] registered a melting point of 220 to 221 °C.

`COc1ccc(C)cc1NC(=O)Nc1ccc(N2CCN(C(=O)OC(C)(C)C)CC2)cc1C` [Example 194, 4-{4-[3-(2-methoxy-5-methyl-phenyl)-ureido]-3-methyl-phenyl}-piperazine-1-carboxylic acid tert-butyl ester] came in with a melting point of 169 to 171 °C.

`COc1ccc(C)cc1NC(=O)Nc1ccc(N2CCN(C(=O)OC(C)(C)C)CC2)c(C)c1` [Example 195, 4-{4-[3-(2-methoxy-5-methyl-phenyl)-ureido]-2-methyl-phenyl}-piperazine-1-carboxylic acid tert-butyl ester] showed a melting point of 103 to 105 °C.

On to `COc1ccc(C)cc1NC(=O)Nc1ccc(N2CCC(C(=O)Nc3c(C)cccc3Cl)CC2)cc1` [Example 196, 1-{4-[3-(2-methoxy-5-methyl-phenyl)-ureido]-phenyl}-piperidine-4-carboxylic acid (2-chloro-6-methyl-phenyl)-amide], for which the melting point was > 250 °C (dec.).

In turn, `COc1ccc(C)cc1NC(=O)Nc1ccc2c(c1)C=CN(C(=O)Nc1c(C)cccc1Cl)C2` [Example 202, 6-[3-(2-methoxy-5-methyl-phenyl)-ureido]-3,4-dihydrido-1H-isoquinoline-2-carboxylic acid (2-chloro-6-methyl-phenyl)-amide] came in with a melting point of 216 to 218 °C.

The compound `COc1ccc(C)cc1NC(=O)Nc1ccc(N2CCC(C(=O)c3ccccc3)CC2)nc1` [Example 205, 1-(4-benzoyl-3,4,5,6-tetrahydro-2H-[1,2′]bipyridinyl-5′-yl)-3-(2-methoxy-5-methyl-phenyl)-urea] registered a melting point of 193 to 194 °C.

`COc1ccc(C)cc1NC(=O)Nc1ccc(N2CCN(C(=O)C(O)c3ncccc3C)CC2)cc1` (stereo not drawn) [Example 427, 1-(4-{4-[2-hydroxy-2-(3-methyl-pyridin-2-yl)-acetyl]-piperazin-1-yl}-phenyl)-3-(2-methoxy-5-methyl-phenyl)-urea] showed a melting point of 199 to 200 °C.
